Reference: ChEMBL document CHEMBL1201862, “PubChem BioAssay data set” (2004)
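Values below derive from 48-hour exposures of cells grown in 96-well plates, with endpoints linearly interpolated between the two concentrations bracketing the appropriate inhibition level. GI50 marks 50% less growth.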 Calls of active or inactive are those of the source. Cut-off read from the data, not from the text of the source: active = GI50 up to about 1.1 µM and inactive = higher.

How the values were obtained:
Assay in all cases: inhibition of tumour cell growth, NCI panel, 48 h
OVCAR-3 = test system: OVCAR-3
HCT-15 = test system: HCT-15
NCI-H460 = test system: NCI-H460
MDA-MB-435 = test system: MDA-MB-435
HCC 2998 = test system: HCC 2998
SK-MEL-2 = test system: SK-MEL-2
IGROV-1 = test system: IGROV-1
A549 = test system: A549
LOX IMVI = test system: LOX IMVI
RPMI-8226 = test system: RPMI-8226
SK-OV-3 = test system: SK-OV-3
HOP-62 = test system: HOP-62
Hs-578T = test system: Hs-578T
SF-539 = test system: SF-539
786-0 = test system: 786-0
MDA-MB-231 = test system: MDA-MB-231
NCI/ADR-RES = test system: NCI/ADR-RES
OVCAR-5 = test system: OVCAR-5
SNB-19 = test system: SNB-19
OVCAR-4 = test system: OVCAR-4

In the case of O=c1oc2ccc3ccccc3c2cc1-c1cn2ccccc2n1, the GI50 (OVCAR-3) is reported as > 100 µM (inactive), the GI50 (HCT-15) is reported as > 100 µM and the GI50 (NCI-H460) is reported as > 100 µM (inactive). The GI50 (MDA-MB-435) was > 100 µM (inactive), the GI50 (HCC 2998) was > 100 µM (inactive) and the GI50 (SK-MEL-2) was > 100 µM (inactive). For the same molecule, the GI50 (IGROV-1) was > 100 µM (inactive), the GI50 (A549) was 24.7 µM (inactive) and the GI50 (LOX IMVI) was 91.8 µM (inactive). The GI50 (RPMI-8226) was > 100 µM (inactive), the GI50 (SK-OV-3) was 39.4 µM (inactive) and the GI50 (HOP-62) was 52.6 µM (inactive). For the same molecule, the GI50 (Hs-578T) was 35.6 µM (inactive), the GI50 (SF-539) was 25.9 µM (inactive) and the GI50 (786-0) was 37.2 µM (inactive). The GI50 (MDA-MB-231) was 24.2 µM (inactive) and the GI50 (NCI/ADR-RES) was > 100 µM (inactive).
In the case of CC1(C)OC1CC/C(=C/CBr)CBr (centres undefined), the GI50 (OVCAR-5) is reported as 17.5 µM (inactive), the GI50 (OVCAR-3) is reported as 18.7 µM (inactive) and the GI50 (SNB-19) is reported as 15.2 µM (inactive). The GI50 (NCI-H460) was 15 µM (inactive), the GI50 (MDA-MB-435) was 17.8 µM (inactive) and the GI50 (HCC 2998) was 16 µM (inactive). The GI50 (SK-MEL-2) was 14.8 µM (inactive), the GI50 (IGROV-1) was 13.8 µM (inactive) and the GI50 (A549) was 21.3 µM (inactive). The GI50 (LOX IMVI) was 10.2 µM (inactive), the GI50 (RPMI-8226) was 12.9 µM (inactive) and the GI50 (SK-OV-3) was 19 µM (inactive). The GI50 (HOP-62) was 17.3 µM (inactive), the GI50 (Hs-578T) was 17.5 µM (inactive) and the GI50 (SF-539) was 18.1 µM (inactive). For the same molecule, the GI50 (786-0) was 15.4 µM (inactive), the GI50 (OVCAR-4) was 17 µM (inactive) and the GI50 (MDA-MB-231) was 15.7 µM (inactive). For the same molecule, the GI50 (NCI/ADR-RES) was 18.8 µM (inactive).
With Cc1cc(S(=O)(=O)N=C2NCC(C)(C)CN2)c(S)cc1Cl the GI50 (OVCAR-5) was 23.1 µM (inactive), the GI50 (OVCAR-3) was 35.7 µM (inactive) and the GI50 (SNB-19) was 36.6 µM (inactive). For the same molecule, the GI50 (HCT-15) was 42.7 µM, the GI50 (NCI-H460) was 27.3 µM (inactive) and the GI50 (MDA-MB-435) was 23.2 µM (inactive). For the same molecule, the GI50 (HCC 2998) was 67.6 µM (inactive), the GI50 (SK-MEL-2) was 21.3 µM (inactive) and the GI50 (IGROV-1) was 38.9 µM (inactive). For the same molecule, the GI50 (A549) was 19 µM (inactive), the GI50 (LOX IMVI) was 15.5 µM (inactive) and the GI50 (SK-OV-3) was > 100 µM (inactive). For the same molecule, the GI50 (HOP-62) was 52.6 µM (inactive), the GI50 (Hs-578T) was 32 µM (inactive) and the GI50 (SF-539) was 40.6 µM (inactive). The GI50 (786-0) was 32.1 µM (inactive), the GI50 (OVCAR-4) was 17.6 µM (inactive) and the GI50 (MDA-MB-231) was 43.4 µM (inactive). The GI50 (NCI/ADR-RES) was 50.8 µM (inactive).
NCCOc1cccc(C2(N3CCCCC3)CCCCC2)c1 was tested, and the GI50 (OVCAR-5) was 41.4 µM (inactive), the GI50 (OVCAR-3) was 34.2 µM (inactive) and the GI50 (SNB-19) was > 100 µM (inactive). The GI50 (HCT-15) was 38.9 µM, the GI50 (NCI-H460) was 41.5 µM (inactive) and the GI50 (MDA-MB-435) was 17.1 µM (inactive). For the same molecule, the GI50 (HCC 2998) was 19.9 µM (inactive), the GI50 (SK-MEL-2) was 21.8 µM (inactive) and the GI50 (A549) was 37.2 µM (inactive). The GI50 (LOX IMVI) was 14.7 µM (inactive), the GI50 (RPMI-8226) was 20.9 µM (inactive) and the GI50 (SK-OV-3) was > 100 µM (inactive). For the same molecule, the GI50 (HOP-62) was 92.5 µM (inactive), the GI50 (Hs-578T) was 16.9 µM (inactive) and the GI50 (SF-539) was 17.5 µM (inactive). For the same molecule, the GI50 (786-0) was 13.3 µM (inactive), the GI50 (OVCAR-4) was 35.9 µM (inactive) and the GI50 (MDA-MB-231) was 21 µM (inactive). For the same molecule, the GI50 (NCI/ADR-RES) was > 100 µM (inactive).
For OC1=C2c3ccccc3NC2Oc2cc(F)ccc21 (centres undefined), the GI50 (OVCAR-5) was 17.9 µM (inactive), the GI50 (OVCAR-3) was 11.9 µM (inactive) and the GI50 (SNB-19) was 20.3 µM (inactive). The GI50 (HCT-15) was 15.8 µM, the GI50 (NCI-H460) was 18.5 µM (inactive) and the GI50 (MDA-MB-435) was 17.1 µM (inactive). The GI50 (HCC 2998) was 17.9 µM (inactive), the GI50 (SK-MEL-2) was 19.7 µM (inactive) and the GI50 (IGROV-1) was 21.7 µM (inactive). For the same molecule, the GI50 (A549) was 19.5 µM (inactive), the GI50 (LOX IMVI) was 16.4 µM (inactive) and the GI50 (SK-OV-3) was 12.7 µM (inactive). For the same molecule, the GI50 (HOP-62) was 17.7 µM (inactive), the GI50 (Hs-578T) was 34.7 µM (inactive) and the GI50 (786-0) was 16 µM (inactive). The GI50 (OVCAR-4) was 16.6 µM (inactive), the GI50 (MDA-MB-231) was 16.1 µM (inactive) and the GI50 (NCI/ADR-RES) was 16.2 µM (inactive).
CN[C@@H](C)[C@H](OP(=O)(O)OC1[C@@H](O)[C@H](O)C(O)[C@H](O)[C@@H]1O)c1ccccc1 (some centres undefined) was tested, and the GI50 (OVCAR-5) was > 100 µM (inactive), the GI50 (OVCAR-3) was > 100 µM (inactive) and the GI50 (SNB-19) was > 100 µM (inactive). The GI50 (HCT-15) was > 100 µM, the GI50 (NCI-H460) was > 100 µM (inactive) and the GI50 (MDA-MB-435) was > 100 µM (inactive). The GI50 (HCC 2998) was > 100 µM (inactive), the GI50 (SK-MEL-2) was > 100 µM (inactive) and the GI50 (IGROV-1) was > 100 µM (inactive). For the same molecule, the GI50 (A549) was > 100 µM (inactive), the GI50 (RPMI-8226) was > 100 µM (inactive) and the GI50 (SK-OV-3) was > 100 µM (inactive). For the same molecule, the GI50 (HOP-62) was > 100 µM (inactive), the GI50 (Hs-578T) was > 100 µM (inactive) and the GI50 (SF-539) was 16.3 µM (inactive). For the same molecule, the GI50 (786-0) was > 100 µM (inactive), the GI50 (OVCAR-4) was > 100 µM (inactive) and the GI50 (MDA-MB-231) was > 100 µM (inactive). For the same molecule, the GI50 (NCI/ADR-RES) was > 100 µM (inactive).
In the case of COc1cc(C#CC(=O)OC/C=C/c2ccc3c(c2)OCO3)cc(OC)c1OC, the GI50 (OVCAR-5) is reported as 35.6 µM (inactive), the GI50 (OVCAR-3) is reported as 26.5 µM (inactive) and the GI50 (SNB-19) is reported as 42.9 µM (inactive). For the same molecule, the GI50 (HCT-15) was 24.9 µM, the GI50 (NCI-H460) was 24.9 µM (inactive) and the GI50 (MDA-MB-435) was 18.5 µM (inactive). The GI50 (HCC 2998) was 26.2 µM (inactive), the GI50 (SK-MEL-2) was 10 µM (inactive) and the GI50 (A549) was 33.7 µM (inactive). For the same molecule, the GI50 (LOX IMVI) was 20.1 µM (inactive), the GI50 (RPMI-8226) was 20.5 µM (inactive) and the GI50 (SK-OV-3) was 27.6 µM (inactive). For the same molecule, the GI50 (HOP-62) was 24 µM (inactive), the GI50 (Hs-578T) was 22.2 µM (inactive) and the GI50 (SF-539) was 20.7 µM (inactive). The GI50 (786-0) was 29.8 µM (inactive), the GI50 (OVCAR-4) was 59.7 µM (inactive) and the GI50 (MDA-MB-231) was 25.8 µM (inactive). For the same molecule, the GI50 (NCI/ADR-RES) was 20 µM (inactive).
With Nc1c(C(=O)O)nnc2cc(Cl)ccc12 the GI50 (OVCAR-5) was > 100 µM (inactive), the GI50 (OVCAR-3) was > 100 µM (inactive) and the GI50 (SNB-19) was > 100 µM (inactive). The GI50 (HCT-15) was > 100 µM, the GI50 (NCI-H460) was > 100 µM (inactive) and the GI50 (MDA-MB-435) was > 100 µM (inactive). For the same molecule, the GI50 (HCC 2998) was > 100 µM (inactive), the GI50 (SK-MEL-2) was > 100 µM (inactive) and the GI50 (IGROV-1) was > 100 µM (inactive). For the same molecule, the GI50 (A549) was > 100 µM (inactive), the GI50 (LOX IMVI) was > 100 µM (inactive) and the GI50 (SK-OV-3) was > 100 µM (inactive). For the same molecule, the GI50 (HOP-62) was > 100 µM (inactive), the GI50 (Hs-578T) was > 100 µM (inactive) and the GI50 (SF-539) was > 100 µM (inactive). The GI50 (786-0) was > 100 µM (inactive), the GI50 (OVCAR-4) was > 100 µM (inactive) and the GI50 (MDA-MB-231) was > 100 µM (inactive). For the same molecule, the GI50 (NCI/ADR-RES) was > 100 µM (inactive).
